Measurements reported in patent US20090054376A1, “BENZOFURAN DERIVATIVES WITH THERAPEUTIC ACTIVITIES” (Pharmos Corporation, priority 2005, published 2009).
Read-outs that look alike come from different tables or passages of the source.

Tests used:
MCP-1 = test: Gene expression in LPS activated RAW 264.7 macrophages, MCP-1; assay type: cell-based, mouse; conditions: RAW 264.7, 10 μM, LPS 1 μg/ml, RNA 3 hrs after activation, vs vehicle treated activated cells
Experimental: (§1) RAW 264.7 macrophages, a mouse cell line (ATCC # TIB 71), were grown in Dulbecco's modified Eagle's medium (DMEM) with 4 mM L-glutamine adjusted to contain 1.5 g/L sodium bicarbonate, 4.5 g/L glucose, and 10% heat inactivated fetal bovine serum. Cells were grown in tissue culture flasks and seeded at appropriate density into 6 wells tissue culture plates. Four million Raw cells in half a milliliter were stimulated with 1 μg/ml LPS E. coli 055:B5 (DIFCO Laboratories). The mouse macrophages were pre-treated for one hour with controls or 10 μM of test compounds, and later on activated with LPS. RNA samples were extracted from the cells 3 hrs after activation and gene expression levels were analyzed by real-time RT-PCR. In parallel, supernatants were collected and secretion of inflammatory mediators was analyzed using ELISA techniques according to the instructions of the kit manufacturer.
(§2) Total RNA is prepared using SV total RNA isolation system (Promega). The cells were homogenized in lysis buffer. The lysates were transferred to an RNA isolation column, treated with DNAse, washed and eluted according to kit instructions. RNA concentrations were determined using GeneQuant II (Pharmacia-Amersham). Complementary DNA (cDNA) was synthesized from total RNA using […] II reverse transcriptase (Life Technologies). 2 μg of total RNA were combined with an oligo (dT)15 primer, 0.5 mM dNTP mix, 8 units of reverse transcriptase and other reaction components up to a final volume of 20 μl, according to the kit instructions. The reaction mixture was incubated at 42° C. for 45 min and inactivated at 70° C. for 15 minutes. Quantitative real-time RT-PCR included 1 μl of the cDNA, 300 nM of the appropriate forward and reverse primers (according to the gene monitored) and 7.5 μl of the reaction mix containing buffer, nucleotides, Taq polymerase and SYBER green (SYBER Green master mix, Applied Biosystems), in a total reaction volume of 15 μl. Gene amplification was obtained using the GeneAmp 5700 sequence detection system (Applied Biosystems). Amplification included one stage of 10 minutes at 95° C. followed by 40 cycles of a 2-steps loop: 20 seconds at 95° C., and 1 minute at 60° C. During each annealing step, the amount of the amplified product was measured by the fluorescence of the double strand DNA binding dye, SYBER Green. The cycle of threshold (CT), representing the PCR cycle at which an increase in fluorescence above a baseline signal can be first detected, was determined for each product. A delay of one PCR cycle in the CT is translated into a two-fold decrease in starting template molecules and vice versa. The changes in the CT of the specific gene product were normalized to the changes in the CT of housekeeping cyclophilin or GAPDH as reference genes. Results were expressed as fold increase of gene expression in treated or untreated activated cells above the resting cells, after normalization to cyclophilin or GAPDH. Cells were also tested for viability to confirm that any effect on gene expression was indeed due to modulation of transcription of a specific target and not to cytoxicity.
(§3) Results were further expressed as percent inhibition of gene expression in compound treated activated cells over vehicle “treated” activated cells. Since the modulation of IL-10 and TNF-α gene expression by the compounds of the invention is relatively minor, it is not reported. […] Inhibition above 50% was considered significant.

IL-1β = test: Gene expression in LPS activated RAW 264.7 macrophages, IL-1β; assay type: cell-based, mouse; conditions: RAW 264.7, 10 μM, LPS 1 μg/ml, RNA 3 hrs after activation, vs vehicle treated activated cells
Experimental: as §1, §2, §3

iNOS = test: Gene expression in LPS activated RAW 264.7 macrophages, iNOS; assay type: cell-based, mouse; conditions: RAW 264.7, 10 μM, LPS 1 μg/ml, RNA 3 hrs after activation, vs vehicle treated activated cells
Experimental: as §1, §2, §3

COX-2 = test: Gene expression in LPS activated RAW 264.7 macrophages, COX-2; assay type: cell-based, mouse; conditions: RAW 264.7, 10 μM, LPS 1 μg/ml, RNA 3 hrs after activation, vs vehicle treated activated cells
Experimental: as §1, §2, §3

[1] = tested on: carrageenan induced inflammatory pain and paw edema; test: Inflammatory pain and paw edema induced by carrageenan; assay type: in vivo, Male Sprague Dawley rats; conditions: for inhibition in vivo at 10 mg/kg / inhibition in vivo at 3 mg/kg: Rattus norvegicus, ip; for inhibition in vivo at 3 mg/kg: 3 mg/kg i.p. (one asterisk)
Procedure, shortened: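 Male Sprague Dawley rats (~200 g) received 0.1 ml 2% λ-carrageenan subplantar in the right paw; compounds given i.p. at 3, 10 or 20 mg/kg (some p.o.) immediately after. Thermal (Hargreaves) latency, mechanical threshold, paw thickness and volume measured at 0 and 3 h; values are inter-paw differences ([…], ΔForce), volume as % of vehicle.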

[2] = 10 mg/kg i.p., 3 hours after carrageenan, reduction in paw swelling, read-out: Percent Inhibition of Inflammatory Pain Responses, Edema
[3] = 10 mg/kg i.p., 3 hours, mechanical stimulus, read-out: Percent Inhibition of Inflammatory Pain Responses, ΔForce
[4] = 10 mg/kg i.p., 3 hours, thermal stimulus, read-out: Percent Inhibition of Inflammatory Pain Responses, ΔLT

Row | Structure (SMILES) | Percent inhibition of gene expression, MCP-1 (MCP-1) | Percent inhibition of gene expression, IL-1β (IL-1β) | Percent inhibition of gene expression, iNOS (iNOS) | Percent inhibition of gene expression, COX-2 (COX-2) | Percent Inhibition of Inflammatory Pain Responses, Edema ([1]; 10 mg/kg i.p., 3 hours after carrageenan, reduction in paw swelling) [%] | Percent Inhibition of Inflammatory Pain Responses, ΔForce ([1]; 10 mg/kg i.p., 3 hours, mechanical stimulus) [%] | Percent Inhibition of Inflammatory Pain Responses, ΔLT ([1]; 10 mg/kg i.p., 3 hours, thermal stimulus) [%] | inhibition in vivo at 10 mg/kg [1, 2] [%] | inhibition in vivo at 10 mg/kg [1, 3] [%] | inhibition in vivo at 10 mg/kg [1, 4] [%] | reduction of paw swelling ([1]; 5 mg/kg p.o.) [%] | reduction of paw swelling ([1]; 20 mg/kg p.o.) [%] | inhibition in vivo at 3 mg/kg ([1]; 3 hours, mechanical stimulus, read-out: Percent Inhibition of Inflammatory Pain Responses, ΔForce) [%] | inhibition in vivo at 3 mg/kg ([1]; 3 hours, reduction in paw swelling, read-out: Percent Inhibition of Inflammatory Pain Responses, Edema) [%] | inhibition in vivo at 3 mg/kg ([1]; 3 hours, thermal stimulus, read-out: Percent Inhibition of Inflammatory Pain Responses, ΔLT) [%]
1 | CCCCC(C)(C)c1cc(O)c2c(c1)OC1(C)CCCC21 (stereo not drawn) [Compound C5S-1, 6-(1,1-dimethylpentyl)-8a-methyl-2,3,3a,8a-tetrahydro-1H-8-oxa-cyclopenta[α]inden-4-ol] | NO (NO indicates that the compound tested did not significantly affect the transcription of the gene assessed and that its activity is comparable to vehicle, within ±20% from this control) | 47% | 37% | 29% | – | – | – | – | – | – | – | – | – | – | –
2 | CCCCCCC(C)(C)c1cc(O)c2c(c1)OC1(C)CCCC21 (stereo not drawn) [Compound C5S-2, 6-(1,1-dimethylheptyl)-8a-methyl-2,3,3a,8a-tetrahydro-1H-8-oxa-cyclo-penta[α]inden-4-ol] | NO (NO indicates that the compound tested did not significantly affect the transcription of the gene assessed and that its activity is comparable to vehicle, within ±20% from this control) | 81% | NO (NO indicates that the compound tested did not significantly affect the transcription of the gene assessed and that its activity is comparable to vehicle, within ±20% from this control) | NO (NO indicates that the compound tested did not significantly affect the transcription of the gene assessed and that its activity is comparable to vehicle, within ±20% from this control) | 48 | 8 | 43 | – | – | – | – | – | – | – | –
3 | CCCCCCC(C)(C)c1cc(O)c2c3c(oc2c1)C(=O)CCC3(C)C [Compound C6M-9, 7-(1,1-Dimethylheptyl)-9-hydroxy-1,1-dimethyl-2,3-dihydro-1H-dibenzofuran-4-one] | 37% | NO (NO indicates that the compound tested did not significantly affect the transcription of the gene assessed and that its activity is comparable to vehicle, within ±20% from this control) | 32% | 50% | – | – | – | 49 | 27 | 75 | – | – | – | – | –
4 | CCCCCCC(C)(C)c1cc(O)c2c(c1)OC1C=CCCC21 (stereo not shown) [Compound C6S-2, 3-(1,1-Dimethylheptyl)-5a,8,9,9a-tetrahydro-dibenzofuran-1-ol] | 44% | 58% | 23% | 61% | – | – | – | 36 | 30 | 58 | – | – | – | – | –
5 | CCCCC(C)(C)c1cc(O)c2c(c1)OC1CCCCC21 (stereo not shown) [Compound C6S-3, 3-(1,1-dimethylpentyl)-5a,6,7,8,9,9a-hexahydro-dibenzofuran-1-ol] | 55% | 74% | 68% | 65% | – | – | – | 48 | 49 | 84 | – | – | – | – | –
6 | CCCCC(C)(C)c1cc(O)c2c(c1)OC1C2CCC(C)(C)C1O (stereo not shown) [Compound C6S-7, 3-(1,1-dimethylpentyl)-7,7-dimethyl-5a,6,7,8,9,9a-hexahydro-dibenzofuran-1,6-diol] | – | – | – | – | – | – | – | – | 41 | 54 | – | – | – | – | –
7 | CCCCCCC(C)(C)c1cc(O)c2c(c1)OC1C(O)CCCCC21 (stereo not drawn) [Compound C7S-2, 2-(1,1-dimethylheptyl)-5,6,7,8,9,9a-hexahydro-4bH-10-oxa-benzo[α]azulen-4,9-diol] | NO (NO indicates that the compound tested did not significantly affect the transcription of the gene assessed and that its activity is comparable to vehicle, within ±20% from this control) | NO (NO indicates that the compound tested did not significantly affect the transcription of the gene assessed and that its activity is comparable to vehicle, within ±20% from this control) | NO (NO indicates that the compound tested did not significantly affect the transcription of the gene assessed and that its activity is comparable to vehicle, within ±20% from this control) | 26% | – | – | – | – | – | – | 41 | 50 | 66 | 56 | 66
